The target in this assay is Recombinant Human Poly(ADP-Ribose) Polymerase (PARP), PARP-1 (Homo sapiens (Human), UniProt P09874). To be noted: read-out: PARP-1 (Ki).
Where [1] appears, read: Table 1, text calls the values EC50s.

SMILES strings stand for the structures. Like-named read-outs stand apart in the source and are kept apart here.

Recombinant Human Poly(ADP-Ribose) Polymerase (PARP), PARP-1, sequence (P09874 whole entry): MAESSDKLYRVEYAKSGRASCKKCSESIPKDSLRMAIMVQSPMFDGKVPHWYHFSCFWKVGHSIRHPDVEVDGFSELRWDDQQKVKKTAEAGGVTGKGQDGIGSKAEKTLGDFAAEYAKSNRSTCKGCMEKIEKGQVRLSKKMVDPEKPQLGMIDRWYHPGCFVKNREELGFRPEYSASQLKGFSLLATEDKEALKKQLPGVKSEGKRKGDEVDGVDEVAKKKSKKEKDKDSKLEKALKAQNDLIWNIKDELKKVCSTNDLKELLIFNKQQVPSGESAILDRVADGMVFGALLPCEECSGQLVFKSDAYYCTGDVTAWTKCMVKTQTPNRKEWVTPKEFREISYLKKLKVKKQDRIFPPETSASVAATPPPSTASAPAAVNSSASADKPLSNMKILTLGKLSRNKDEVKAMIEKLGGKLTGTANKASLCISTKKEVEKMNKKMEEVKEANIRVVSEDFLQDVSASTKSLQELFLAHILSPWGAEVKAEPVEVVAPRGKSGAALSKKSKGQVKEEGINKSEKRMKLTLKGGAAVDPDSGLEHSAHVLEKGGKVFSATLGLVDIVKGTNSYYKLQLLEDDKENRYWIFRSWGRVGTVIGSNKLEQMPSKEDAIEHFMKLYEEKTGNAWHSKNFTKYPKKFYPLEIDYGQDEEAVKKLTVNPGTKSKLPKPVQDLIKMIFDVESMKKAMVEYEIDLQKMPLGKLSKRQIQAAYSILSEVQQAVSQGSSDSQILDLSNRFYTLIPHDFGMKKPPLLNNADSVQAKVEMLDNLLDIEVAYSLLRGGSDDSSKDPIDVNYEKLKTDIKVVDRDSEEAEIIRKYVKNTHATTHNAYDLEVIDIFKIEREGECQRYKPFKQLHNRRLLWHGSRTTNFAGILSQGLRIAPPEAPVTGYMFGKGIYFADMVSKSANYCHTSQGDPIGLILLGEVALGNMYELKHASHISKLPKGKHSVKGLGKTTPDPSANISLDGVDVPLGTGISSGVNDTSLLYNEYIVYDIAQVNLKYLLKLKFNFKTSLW

The Ki is a measure of affinity in units of concentration, obtained from inhibition or displacement. Turning to `O=C(c1cc(Cc2n[nH]c(=O)c3c2CCCC3)ccc1F)N1CCN(C(=O)C2CCCCC2)CC1` [Example 624, 4-(3-{[4-(cyclohexylcarbonyl)piperazin-1-yl]carbonyl}-4-fluorobenzyl)-5,6,7,8-tetrahydrophthalazin-1(2H)-one], the inhibitory constant (Ki) under setting [1] was 0.0025 µM.

As for `CC(C)S(=O)(=O)Nc1cccc(Cc2n[nH]c(=O)c3c2CCCC3)c1` [Example 115, N-(3-((4-oxo-3,4,5,6,7,8-hexahydrophthalazin-1-yl)methyl)phenyl)propane-2-sulfonamide], under setting [1], the Ki was found to be 0.157 µM. Consider `O=C(NCCc1cccc(C(F)(F)F)c1)c1cccc(Cc2n[nH]c(=O)c3c2CCCC3)c1` [Example 394, 3-((4-oxo-3,4,5,6,7,8-hexahydrophthalazin-1-yl)methyl)-N-(2-(3-(trifluoromethyl)phenyl)ethyl)benzamide], for which the Ki under setting [1] is 0.022 µM. Turning to `Cc1cc(NC(=O)c2cccc(Cc3n[nH]c(=O)c4c3CCCC4)c2)ccc1Br` [Example 345, N-(4-bromo-3-methylphenyl)-3-((4-oxo-3,4,5,6,7,8-hexahydrophthalazin-1-yl)methyl)benzamide], the inhibition constant (Ki) under setting [1] was found to be 0.149 µM. For the compound `O=C(CCCc1ccccc1)Nc1cccc(Cc2n[nH]c(=O)c3c2CCCC3)c1` [Example 147, N-(3-((4-oxo-3,4,5,6,7,8-hexahydrophthalazin-1-yl)methyl)phenyl)-4-phenylbutanamide], the inhibition constant (Ki) under setting [1] was 0.041 µM. Same read-out and setting: the result for `O=C(c1cc[nH]n1)N1CCCN(C(=O)c2cc(Cc3n[nH]c(=O)c4c3NCCC4)ccc2F)CC1` [Example 702, 8-(4-fluoro-3-{[4-(1H-pyrazol-3-ylcarbonyl)-1,4-diazepan-1-yl]carbonyl}benzyl)-2,3,4,6-tetrahydropyrido[2,3-d]pyridazin-5(1H)-one] reads 0.0021 µM; that for `COc1cccc(CCNC(=O)c2cccc(Cc3n[nH]c(=O)c4c3CCCC4)c2)c1OC` [Example 402, N-(2-(2,3-dimethoxyphenyl)ethyl)-3-((4-oxo-3,4,5,6,7,8-hexahydrophthalazin-1-yl)methyl)benzamide], 0.086 µM; that for `CC(C)NC(=O)Nc1cc(Cc2n[nH]c(=O)c3c2CCCC3)ccc1F` [Example 538, N-{2-fluoro-5-[(4-oxo-3,4,5,6,7,8-hexahydrophthalazin-1-yl)methyl]phenyl}-N′-isopropylurea], 0.374 µM. The same measure, in the same setting: with `O=C(Nc1cccc(Cc2n[nH]c(=O)c3c2CCCC3)c1)c1cc(F)cc(F)c1` [Example 184, 3,5-difluoro-N-(3-((4-oxo-3,4,5,6,7,8-hexahydrophthalazin-1-yl)methyl)phenyl)benzamide] the figure was 0.154 µM; with `O=C(c1cc(Cc2n[nH]c(=O)c3c2CCCC3)ccc1F)N1CCN(c2cncnc2)CC1` [Example 757, 4-{4-fluoro-3-[(4-pyrimidin-5-ylpiperazin-1-yl)carbonyl]benzyl}-5,6,7,8-tetrahydrophthalazin-1(2H)-one], 0.0012 µM. The same measure, in the same setting: the result for `CN(C(=O)c1cc(Cc2n[nH]c(=O)c3c2NCCC3)ccc1F)C1CCN(C(=O)c2cn[nH]c2)CC1` [Example 718, 2-fluoro-N-methyl-5-[(5-oxo-1,2,3,4,5,6-hexahydropyrido[2,3-d]pyridazin-8-yl)methyl]-N-[1-(1H-pyrazol-4-ylcarbonyl)piperidin-4-yl]benzamide] reads 0.0026 µM; that for `Cc1ccc(NC(=O)c2cccc(Cc3n[nH]c(=O)c4c3CCCC4)c2)cc1O` [Example 350, N-(3-hydroxy-4-methylphenyl)-3-((4-oxo-3,4,5,6,7,8-hexahydrophthalazin-1-yl)methyl)benzamide], 0.143 µM. Consider `Cn1cnc(C(=O)N2CCCN(C(=O)c3cc(Cc4n[nH]c(=O)c5c4CCCC5)ccc3F)CC2)c1` [Example 636, 4-[4-fluoro-3-({4-[(1-methyl-1H-imidazol-4-yl)carbonyl]-1,4-diazepan-1-yl}carbonyl)benzyl]-5,6,7,8-tetrahydrophthalazin-1(2H)-one], for which the Ki under setting [1] was 0.0018 µM. On the same count and under the same terms, the result for `O=C(CCCOc1ccccc1)Nc1cccc(Cc2n[nH]c(=O)c3c2CCCC3)c1` [Example 165, N-(3-((4-oxo-3,4,5,6,7,8-hexahydrophthalazin-1-yl)methyl)phenyl)-4-phenoxybutanamide] reads 0.014 µM. The same measure, in the same setting: the result for `O=C(c1cc(Cc2n[nH]c(=O)c3c2CCCC3)ccc1F)N1CCN(c2cnccn2)CC1` [Example 496, 4-{4-fluoro-3-[(4-pyrazin-2-ylpiperazin-1-yl)carbonyl]benzyl}-5,6,7,8-tetrahydrophthalazin-1(2H)-one] reads 0.0008 µM. With `O=C1CCN1c1cc(-c2n[nH]c(=O)c3c2CCCC3)ccc1F`, for the setting “Table 2, A2 is C1-alkyl versus no A2 (bond)”, the Ki turned out to be 0.291 µM. As to `O=C(CNC(=O)OCc1ccccc1)Nc1cccc(CCc2n[nH]c(=O)c3c2CCCC3)c1` [Example 320, benzyl 2-oxo-2-(3-(2-(4-oxo-3,4,5,6,7,8-hexahydrophthalazin-1-yl)ethyl)phenylamino)ethylcarbamate], the Ki under setting [1] worked out at 0.165 µM. In the case of `CN1CC(NC(=O)c2cccc(Cc3n[nH]c(=O)c4c3CCCC4)c2)C1` [Example 65, N-(1-methylazetidin-3-yl)-3-((4-oxo-3,4,5,6,7,8-hexahydrophthalazin-1-yl)methyl)benzamide], under setting [1], the Ki was determined as 0.082 µM. The same measure, in the same setting: the result for `O=C(Cc1cc(F)cc(F)c1)Nc1cccc(Cc2n[nH]c(=O)c3c2CCCC3)c1` [Example 156, 2-(3,5-difluorophenyl)-N-(3-((4-oxo-3,4,5,6,7,8-hexahydrophthalazin-1-yl)methyl)phenyl)acetamide] reads 0.025 µM. On the same count and under the same terms, the result for `COc1ccc(C(=O)CCC(=O)Nc2cccc(Cc3n[nH]c(=O)c4c3CCCC4)c2)cc1` [Example 173, 4-(4-methoxyphenyl)-4-oxo-N-(3-((4-oxo-3,4,5,6,7,8-hexahydrophthalazin-1-yl)methyl)phenyl)butanamide] reads 0.002 µM.

On to `CC(=O)N(C)C1CCN(C(=O)c2cc(Cc3n[nH]c(=O)c4c3NCCC4)ccc2F)C1` (centres unmarked) [Example 595, N-(1-{2-fluoro-5-[(5-oxo-1,2,3,4,5,6-hexahydropyrido[2,3-d]pyridazin-8-yl)methyl]benzoyl}pyrrolidine-3-yl)-N-methylacetamide], for which the Ki under setting [1] was determined as 0.006 µM. The same measure, in the same setting: with `CCN(CCNC(=O)C1CC1)C(=O)c1cc(Cc2n[nH]c(=O)c3c2CCCC3)ccc1F` [Example 761, N-{2-[(cyclopropylcarbonyl)amino]ethyl}-N-ethyl-2-fluoro-5-[(4-oxo-3,4,5,6,7,8-hexahydrophthalazin-1-yl)methyl]benzamide] the figure was 0.0006 µM. With `O=C(Nc1ccc2ncccc2c1)c1cccc(Cc2n[nH]c(=O)c3c2CCCC3)c1` [Example 366, 3-((4-oxo-3,4,5,6,7,8-hexahydrophthalazin-1-yl)methyl)-N-quinolin-6-ylbenzamide], the Ki under setting [1] is 0.023 µM.

Consider `CCS(=O)(=O)N1CCN(C(=O)c2cc(Cc3n[nH]c(=O)c4c3NCCC4)ccc2F)CC1` [Example 594], for which the Ki under setting [1] was 0.0007 µM. On to `CCc1cccc(NC(=O)c2cccc(Cc3n[nH]c(=O)c4c3CCCC4)c2)c1` [Example 330, N-(3-ethylphenyl)-3-((4-oxo-3,4,5,6,7,8-hexahydrophthalazin-1-yl)methyl)benzamide], for which the inhibitory constant (Ki) under setting [1] is 0.099 µM.

Turning to `CCOC(=O)N1CCN(C(=O)c2cc(Cc3n[nH]c(=O)c4c3NCCC4)ccc2F)CC1` [Example 666, ethyl 4-{2-fluoro-5-[(5-oxo-1,2,3,4,5,6-hexahydropyrido[2,3-d]pyridazin-8-yl)methyl]benzoyl}piperazine-1-carboxylate], under setting [1], the Ki turned out to be 0.0015 µM. Same read-out and setting: the result for `O=C(Nc1cccc(Cc2n[nH]c(=O)c3c2CCCC3)c1)[C@H](O)CCc1ccccc1` [Example 164, (2R)-2-hydroxy-N-(3-((4-oxo-3,4,5,6,7,8-hexahydrophthalazin-1-yl)methyl)phenyl)-4-phenylbutanamide] reads 0.028 µM; that for `COc1ccc(N2CCN(C(=O)c3cc(Cc4n[nH]c(=O)c5c4NCCC5)ccc3F)CC2)cc1` [Example 599, 8-(4-fluoro-3-{[4-(4-methoxyphenyl)piperazin-1-yl]carbonyl}benzyl)-2,3,4,6-tetrahydropyrido[2,3-d]pyridazin-5(1H)-one], 0.0011 µM; that for `O=C(c1ccccc1)N1CCN(C(=O)c2cc(Cc3n[nH]c(=O)c4c3CCCC4)ccc2F)CC1` [Example 525, 4-{3-[(4-benzoylpiperazin-1-yl)carbonyl]-4-fluorobenzyl}-5,6,7,8-tetrahydrophthalazin-1(2H)-one], 0.0016 µM. Still for that read-out and setting: with `Cc1ccnc(SCC(=O)Nc2cccc(Cc3n[nH]c(=O)c4c3CCCC4)c2)n1` [Example 167, 2-((4-methylpyrimidin-2-yl)thio)-N-(3-((4-oxo-3,4,5,6,7,8-hexahydrophthalazin-1-yl)methyl)phenyl)acetamide] the figure was 0.056 µM; with `O=C(c1cccnc1)N1CCN(C(=O)c2cc(Cc3n[nH]c(=O)c4c3CCCC4)ccc2F)CC1` [Example 722, 4-(4-fluoro-3-{[4-(pyridin-3-ylcarbonyl)piperazin-1-yl]carbonyl}benzyl)-5,6,7,8-tetrahydrophthalazin-1(2H)-one], 0.0012 µM; with `O=C(c1cc(Cc2n[nH]c(=O)c3c2CCCC3)ccc1F)N1CCN(C(=O)N2CCCCC2)CC1` [Example 495, 4-(4-fluoro-3-{[4-(piperidin-1-ylcarbonyl)piperazin-1-yl]carbonyl}benzyl)-5,6,7,8-tetrahydrophthalazin-1(2H)-one], 0.0019 µM. On the same count and under the same terms, with `CCc1ccc(C(=O)Nc2cccc(Cc3n[nH]c(=O)c4c3CCCC4)c2)cc1` [Example 177, 4-ethyl-N-(3-((4-oxo-3,4,5,6,7,8-hexahydrophthalazin-1-yl)methyl)phenyl)benzamide] the figure was 0.156 µM; with `O=C(c1cc(Cc2n[nH]c(=O)c3c2NCCC3)ccc1F)N1CCN(c2ccccc2Cl)CC1` [Example 554, 8-(3-{[4-(2-chlorophenyl)piperazin-1-yl]carbonyl}-4-fluorobenzyl)-2,3,4,6-tetrahydropyrido[2,3-d]pyridazin-5(1H)-one], 0.0021 µM.

With `CC1=C(C)C(=O)N(c2cc(Cc3n[nH]c(=O)c4c3CCCC4)ccc2F)C1=O` [Example 290, 1-(2-fluoro-5-((4-oxo-3,4,5,6,7,8-hexahydrophthalazin-1-yl)methyl)phenyl)-3,4-dimethyl-1H-pyrrole-2,5-dione], the Ki under setting [1] was 0.001 µM.

Values taken from US9283222B2 (priority 2006, dated 2016).
